Data taken from patent US8697839B2, “GQ protein competitive inhibitory polypeptides, preparation methods and uses thereof” (Third Military Medical University, priority 2008, dated 2014).

How the values were obtained:
[1] = test system: myocardial hypertrophy in mice induced by norepinephrine; experiment: myocardial hypertrophy in mice induced by norepinephrine; format: in vivo; conditions: NE model group: equivalent to 1.5 mg/kg NE ip bid 15 days, alone; x ± s
Description: Fifty of the mice used in the experiment (purchased from Center for Experimental Animals, Third Military Medical University) was assigned into five groups with 10 mice per group. The mice in the control group were administrated with 0.1% ascorbic acid-3 mg % potassium sodium tartrate-physiological saline, The mice in the model group were administrated with 0.1% ascorbic acid-6 mg % norepinephrine bitartrate-physiological saline (equivalent to 1.5 mg/kg NE); The mice in three dosing groups were administrated with the pentadecapeptide, the heptacosapeptide, and the pantapentacontapeptide at 30 μg/kg respectively, while administration of 0.1% ascorbic acid—6 mg % norepinephrine bitartrate—physiological saline. The administration was performed consecutively by intraperitoneal injection (ip), twice a day (bid), for 15 days. The dosing volumes for each group were 50 ml/kg. Then, the animals were sacrificed by cervical dislocation. The heart was removed by thoracotomy, washed with the chilled physiological saline to get rid of blood stain, blotted with filter paper, weighed on a scale. The atriums and the right ventricle were carefully removed (with the interventricular septum left), and the left ventricle was weighed.

[2] = test system: cultured cardiocytes of the rats (hypertrophy induced by NE); experiment: protein content in rat cardiocyte hypertrophy induced by norepinephrine (Lowry method); format: cell-based, Wistar rats; conditions: for Protein content: 24 h, n = 6, x ± s; for effect on protein content in the hypertrophic cardiocyte induced by NE: polypeptide at 10 nmol/L
Text: 1. Wistar rats 1-3 day postpartum (purchased from Center for Experimental Animal, Third Military Medical University) was used, sacrificed by cervical dislocation, and fixed on a dissecting table. The ventral skin of the corpus was disinfected with 2% iodine tincture and then 75% ethanol. The heart was removed, cutted into pieces of about 1-3 mm^3, digested repeatedly with a digestion solution containing 0.08% trypase, 0.02% EDTA, and 0.05% collogen. The cells were collected in DMEM containing 10% fetal bovine serum and cultured in an incubator at 37° C., 5% CO2.
2. The cardiocytes cultured for 48 h were subjected to replacement of the DMEM with a serum-free DMEM culture media and further cultured for 24 h before addition of a drug according to the following groups: • Normal control group; 10 μl of PBS was added. • Norepinephrine group; norepinephrine (NE, Serva Corporation, USA) was added at 1 μmol/L. • Polypeptide-dosed group: NE was added, while the corresponding polypeptide drug was added at 10 nmol/L.
(§1) 3. After addition of the drug, the cells were further cultured for 24 h and then the culture media was discarded. The culture was washed with PBS, followed by adding 0.5 ml of 5% trichloracetic acid per well, and left at 4° C. for 1 h. The precipitate was dissolved in 1 ml of 0.1 mol/L NaOH. The protein content was determined by Lowry method.

[3] = test system: myocardial hypertrophy in rats induced by norepinephrine; experiment: myocardial hypertrophy in rats induced by norepinephrine; format: in vivo, Wistar rats; conditions: NE model group: 6 mg % norepinephrine bitartrate, 33 ml/kg ip bid 20 days, alone; n = 6, x ± s
Description: Thirty of Wistar rats were selected and assigned into five groups with 6 rats per group. The rats in the control group were administrated with 0.1% ascorbic acid-3 mg % potassium sodium tartrate-physiological saline; the rats in the model group were administrated with 0.1% ascorbic acid-6 mg % norepinephrine bitartrate-physiological saline; the rats in the three dosing groups were administrated with the pentadecapeptide, the heptacosapeptide, and the pantapentacontapeptide at 15 μg/kg respectively, while administration of norepinephrine. The dosing volume for each group was 33 ml/kg, and the administration was performed consecutively by ip, bid, for 20 days. At that time, the heart and left ventricle were weighed.

[4] = test system: hypertrophic cardiocyte induced by angiotensin II; experiment: protein content in rat cardiocyte hypertrophy induced by angiotensin II (Lowry method); format: cell-based; conditions: for Protein content: 24 h, n = 6, x ± s
Description: 1. The cardiocytes were cultured for 48 h in the same way as described above, then subjected to replacement of the DMEM with a serum-free DMEM culture media, and further cultured for 24 h before addition of a drug according to the following groups: normal control group: 10 μl of PBS was added; Ang II group; Ang II was added at 1 μmol/L; serial polypeptide-dosed group: Ang II was added, while each of the dodecapeptide, pentadecapeptide, heptacosapeptide, pantapentacontapeptide was added at 10 nmol/L.
as §1, with “2.” for “3.”

[5] = polypeptide 10 nmol/L together with NE 1 μmol/L

NC[C@H](O)c1ccc(O)c(O)c1 [NE, norepinephrine, reference compound]
HI (heart index) [1]: 4.82 ± 0.44 mg/g | HW (heart weight) [1]: 112.1 ± 12.1 mg | LVI (left ventricular index or myocardial hypertrophy index) [1]: 3.69 ± 0.36 mg/g | LVW (left ventricular weight) [1]: 85.6 ± 9.16 mg | Protein content ([2]; NE group: NE 1000 nmol/L alone): 121.0 ± 13.2 μg/10^5 cells | HI (heart index) [3]: 3.674 ± 0.348 g/kg | HW (heart weight) [3]: 0.690 ± 0.078 g | LVI (left ventricular index or myocardial hypertrophy index) [3]: 2.954 ± 0.225 g/kg | LVW (left ventricular weight) [3]: 0.555 ± 0.055 g

Dicosapeptide: SEQ ID NO: 7 (icosapeptide), obtained by deleting amino acid residues 1 to 35 at the N-terminal of SEQ ID NO: 1 (VFAAVKDTILQLNLKEYNLV; listed as Homo sapiens)
Protein content [2, 5]: 103.4 ± 11.4 μg/10^5 cells | effect on protein content in the hypertrophic cardiocyte induced by NE [2]: significantly decrease

Dodecapeptide: SEQ ID NO: 10, obtained by deleting amino acid residues 1 to 43 at the N-terminal of SEQ ID NO: 1 (ILQLNLKEYNLV; listed as Homo sapiens)
Protein content [2, 5]: 113.3 ± 11.6 μg/10^5 cells | effect on protein content in the hypertrophic cardiocyte induced by NE [2]: no manifest effect | effect on protein content in the cardiocyte in comparison with Ang II ([4]; polypeptide 10 nmol/L + Ang II): no manifest effect | Protein content ([4]; polypeptide 10 nmol/L together with Ang II 1 μmol/L): 144.0 ± 11.7 μg/10^5 cells

Heptadecapeptide: SEQ ID NO: 8, obtained by deleting amino acid residues 1 to 38 at the N-terminal of SEQ ID NO: 1 (AVKDTILQLNLKEYNLV; listed as Homo sapiens)
Protein content [2, 5]: 96.4 ± 10.5 μg/10^5 cells | effect on protein content in the hypertrophic cardiocyte induced by NE [2]: significantly decrease

angiotensin II (DRVYIHPF; Angiotensin-2; UniProt P01019 25-32, looked up) [Ang II, inducer of cardiocyte hypertrophy, reference compound]
protein content in the cardiocyte ([4]; Ang II added alone, vs 113.9±7.48 normal control, p<0.01): 143.2 ± 5.49 µg | Protein content ([4]; Ang II group: Ang II 1000 nmol/L alone): 143.2 ± 5.49 μg/10^5 cells
